# Values of other authors, collected in patent US20230094837A1, “Biodegradable and Multifunctional Neural Block Devices” (The Penn State Research Foundation, priority 2020, published 2023).
# System: femur mineral density
# Conditions: rats, oral administration
smiles,measurement,value
OC[C@@H](O)[C@H](O)[C@@H](O)CO [xylitol],effect on femur mineral density,increased femur mineral density
